Results on 15 compounds are retold here after patent publication US8952034B2, “Fused heterocyclic compounds as ion channel modulators” (Gilead Sciences, Inc., priority 2009, dated 2015).

The assay has as its target wild-type human cardiac sodium channel, hNav1.5 (Homo sapiens, UniProt Q14524). Put plainly: Late INa screening assay (automated whole cell patch clamp, PatchXpress). Type of assay: cell-based. Particulars: HEK293 cells expressing hNav1.5, late INa generated with 10 μM Tefluthrin (or 50 nM ATX II); for inhibition at 1 µM: compound at 1 μM, read-out: LateINa_1 uM (percent block of late INa); for inhibition at 10 µM: compound at 10 μM, read-out: LateINa_10 uM (percent block of late INa). The gist of the method:
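Late sodium current through wild-type human hNav1.5 stably expressed in HEK293 cells (no beta subunits) was recorded by automated whole-cell patch clamp on a PatchXpress 7000A at 24-27° C. Late INa was induced with 10 μM Tefluthrin or 50 nM ATX II. Cells were stepped from −120 mV to −20 mV for 250 ms at 0.1 Hz, and percent block was normalized to current in Na-free extracellular solution.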

Sequence of wild-type human cardiac sodium channel, hNav1.5 (Q14524 whole entry): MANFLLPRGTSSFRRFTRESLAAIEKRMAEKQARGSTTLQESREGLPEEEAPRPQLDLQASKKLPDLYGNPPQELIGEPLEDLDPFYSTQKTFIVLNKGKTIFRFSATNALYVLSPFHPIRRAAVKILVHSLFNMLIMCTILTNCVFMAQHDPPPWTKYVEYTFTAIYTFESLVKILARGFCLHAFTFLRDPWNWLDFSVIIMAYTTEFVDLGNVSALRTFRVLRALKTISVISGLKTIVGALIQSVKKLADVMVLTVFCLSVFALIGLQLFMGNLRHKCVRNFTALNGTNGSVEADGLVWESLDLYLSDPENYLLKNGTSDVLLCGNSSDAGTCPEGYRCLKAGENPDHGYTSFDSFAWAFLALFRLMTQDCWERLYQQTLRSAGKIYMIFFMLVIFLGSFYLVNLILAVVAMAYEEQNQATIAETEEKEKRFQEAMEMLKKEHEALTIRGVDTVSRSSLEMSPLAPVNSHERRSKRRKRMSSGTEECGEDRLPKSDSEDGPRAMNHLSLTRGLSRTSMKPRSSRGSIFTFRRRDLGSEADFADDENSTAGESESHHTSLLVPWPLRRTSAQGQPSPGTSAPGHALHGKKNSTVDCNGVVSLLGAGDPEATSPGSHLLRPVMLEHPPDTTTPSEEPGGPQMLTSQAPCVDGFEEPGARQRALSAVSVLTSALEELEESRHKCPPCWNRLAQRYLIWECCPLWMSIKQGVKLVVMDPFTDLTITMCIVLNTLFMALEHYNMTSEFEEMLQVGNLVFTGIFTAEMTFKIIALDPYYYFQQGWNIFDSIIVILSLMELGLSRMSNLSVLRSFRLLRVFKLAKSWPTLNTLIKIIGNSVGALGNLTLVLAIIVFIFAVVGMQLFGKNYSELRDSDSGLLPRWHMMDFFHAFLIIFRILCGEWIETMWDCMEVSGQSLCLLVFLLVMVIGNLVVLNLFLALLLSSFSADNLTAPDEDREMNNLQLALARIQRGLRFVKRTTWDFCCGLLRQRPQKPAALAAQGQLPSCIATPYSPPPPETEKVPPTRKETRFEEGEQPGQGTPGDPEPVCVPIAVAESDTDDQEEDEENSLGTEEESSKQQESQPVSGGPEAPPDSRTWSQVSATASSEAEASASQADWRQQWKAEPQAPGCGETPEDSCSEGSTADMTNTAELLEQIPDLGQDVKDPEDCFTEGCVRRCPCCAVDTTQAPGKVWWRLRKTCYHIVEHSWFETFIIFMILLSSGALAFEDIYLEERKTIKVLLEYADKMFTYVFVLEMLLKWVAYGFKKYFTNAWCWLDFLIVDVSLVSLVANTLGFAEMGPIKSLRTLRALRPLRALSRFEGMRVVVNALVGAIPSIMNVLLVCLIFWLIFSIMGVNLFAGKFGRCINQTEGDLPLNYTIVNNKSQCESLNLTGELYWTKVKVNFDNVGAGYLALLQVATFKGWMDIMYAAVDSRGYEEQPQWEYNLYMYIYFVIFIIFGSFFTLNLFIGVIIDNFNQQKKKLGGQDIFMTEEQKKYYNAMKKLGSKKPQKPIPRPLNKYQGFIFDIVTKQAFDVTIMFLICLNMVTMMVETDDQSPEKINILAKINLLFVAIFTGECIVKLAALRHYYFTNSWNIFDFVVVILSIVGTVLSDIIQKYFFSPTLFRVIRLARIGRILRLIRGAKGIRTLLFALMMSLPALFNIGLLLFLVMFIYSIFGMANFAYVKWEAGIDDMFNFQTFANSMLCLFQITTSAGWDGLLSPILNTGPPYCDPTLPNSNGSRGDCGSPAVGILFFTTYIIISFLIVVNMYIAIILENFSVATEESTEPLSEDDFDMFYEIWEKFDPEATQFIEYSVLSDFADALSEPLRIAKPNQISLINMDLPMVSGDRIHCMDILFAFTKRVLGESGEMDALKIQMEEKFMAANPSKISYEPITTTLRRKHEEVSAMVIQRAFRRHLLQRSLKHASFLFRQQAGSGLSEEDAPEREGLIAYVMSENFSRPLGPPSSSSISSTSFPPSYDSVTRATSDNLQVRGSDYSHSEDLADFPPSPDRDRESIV

Take `FC(F)(F)c1ccc(-c2ccc3nnc(C(F)(F)F)n3c2)c(C(F)(F)F)c1` [BHN-199, 6-[2,4-bis(trifluoromethyl)phenyl]-3-(trifluoromethyl)[1,2,4]triazolo[4,3-a]pyridine]: the inhibition at 1 µM turned out to be 20.6%.
As to `FC(F)(F)COc1ccc(-c2ccc3cnc(C(F)(F)F)n3c2)cn1` [BHN-179, 6-[6-(2,2,2-trifluoroethoxy)pyridin-3-yl]-3-(trifluoromethyl)imidazo[1,5-a]pyridine], the inhibition at 1 µM is 49.7%.
Take `OC1(COC(F)(F)c2nnc3ccc(-c4ccc(OC(F)(F)F)cc4)cn23)CCC1` [BHN-248, 1-[(difluoro{6-[4-(trifluoromethoxy)phenyl][1,2,4]triazolo[4,3-a]pyridin-3-yl}methoxy)methyl]cyclobutanol]: the inhibition at 1 µM came out at 50.2%.
For `Fc1cc(-c2ccc3nnc(C(F)(F)F)n3n2)ccc1OC(F)(F)F` [BHN-209, 6-[3-fluoro-4-(trifluoromethoxy)phenyl]-3-(trifluoromethyl)[1,2,4]triazolo[4,3-b]pyridazine], the inhibition at 1 µM is 61%.
Consider `OCC(F)(F)c1nnc2ccc(-c3ccc(Oc4ccccc4)cc3)cn12` [BHN-111, 2,2-difluoro-2-[6-(4-phenoxyphenyl)[1,2,4]triazolo[4,3-a]pyridin-3-yl]ethanol], for which the inhibition at 1 µM is 29%.
Take `CN(c1ccccc1)c1ccc(-c2ccc3nnc(C(F)(F)F)n3c2)cc1` [BHN-278, N-methyl-N-phenyl-4-[3-(trifluoromethyl)[1,2,4]triazolo[4,3-a]pyridin-6-yl]aniline]: the inhibition at 1 µM came to 54.2%.
Take `Fc1ccc(COCc2nnc3ccc(-c4ccc(OC(F)(F)F)cc4)cn23)cc1` [BHN-227, 3-{[(4-fluorobenzyl)oxy]methyl}-6-[4-(trifluoromethoxy)phenyl][1,2,4]triazolo[4,3-a]pyridine]: the inhibition at 1 µM came out at 79.8%.
Turning to `FC(F)(F)c1nnc2ccc(C#Cc3ccccc3)cn12` [BHN-163, 6-(phenylethynyl)-3-(trifluoromethyl)[1,2,4]triazolo[4,3-a]pyridine], the inhibition at 1 µM was 57.3%.
Consider `O=C(O)Cc1nnc2ccc(-c3ccc(OC(F)(F)F)cc3)cn12` [BHN-19, {6-[4-(trifluoromethoxy)phenyl][1,2,4]triazolo[4,3-a]pyridin-3-yl}acetic acid], for which the inhibition at 10 µM stood at 35.4%.
For the compound `FC(F)(F)c1nnc2ccc(-c3ccc(C4CC4)cc3)cn12` [BHN-90, 6-(4-cyclopropylphenyl)-3-(trifluoromethyl)[1,2,4]triazolo[4,3-a]pyridine], the inhibition at 1 µM came out at 63.4% and the inhibition at 10 µM was 74.9%.
Turning to `FC(F)(F)COc1nnc2ccc(-c3ccc(OC(F)(F)F)cc3)cn12` [BHN-186, 3-(2,2,2-trifluoroethoxy)-6-[4-(trifluoromethoxy)phenyl][1,2,4]triazolo[4,3-a]pyridine], the inhibition at 1 µM came out at 45.2%.
On to `FC(F)(F)Oc1ccc(-c2ccc3nnc(COCc4ccc(Cl)cc4)n3c2)cc1` [BHN-241, 3-{[(4-chlorobenzyl)oxy]methyl}-6-[4-(trifluoromethoxy)phenyl][1,2,4]triazolo[4,3-a]pyridine], for which the inhibition at 1 µM came to 82.2%.
As to `Fc1cc(-c2ccc3nnc(C(F)F)n3n2)ccc1OC(F)(F)F` [BHN-253, 3-(difluoromethyl)-6-[3-fluoro-4-(trifluoromethoxy)phenyl][1,2,4]triazolo[4,3-b]pyridazine], the inhibition at 1 µM is 39.4%.
With `CN(C)CCOCC(F)(F)c1nnc2ccc(-c3ccc(OC(F)(F)F)cc3)cn12` [BHN-150, 2-(2,2-difluoro-2-{6-[4-(trifluoromethoxy)phenyl][1,2,4]triazolo[4,3-a]pyridin-3-yl}ethoxy)-N,N-dimethylethanamine], the inhibition at 1 µM worked out at 15.6%.
For `CC(C)S(=O)(=O)c1ccc(-c2ccc3nnc(C(F)(F)F)n3c2)cc1` [BHN-68, 6-[4-(propan-2-ylsulfonyl)phenyl]-3-(trifluoromethyl)[1,2,4]triazolo[4,3-a]pyridine], the inhibition at 10 µM was 22%.
